From PubChem BioAssay AID330 (DTP/NCI, 2004)
Several values for one entry are separate records, joined by “and”; a condition that tells them apart may be missing. Equal values may be shown once. Inconclusive results and toxic doses are left out. The calls were made as follows: active = survival T/C of 150% or more; inactive = T/C below 125% in these data.

Test system: P388 leukemia ip, CD2F1 mice, survival T/C
Assay: NCI In Vivo Anticancer Drug Screen. Data for tumor model P388 Leukemia (intraperitoneal) in CD2F1 (CDF1) mice
Settings: endpoint: median survival time, higher = longer survival
How it was run: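 Mice carrying the transplanted tumor received test compound or vehicle. Survival was recorded in each group, and the value is the treated-group measurement divided by that of the vehicle-treated control group.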

[1] = dose: 50.0 mg/kg/injection, schedule: Q01DX005 (ip), vehicle: Klucel (hydroxypropylcellulose) (HPC)
[2] = dose: 100.0 mg/kg/injection, schedule: Q01DX005 (ip), vehicle: Klucel (hydroxypropylcellulose) (HPC)
[3] = dose: 200.0 mg/kg/injection, schedule: Q01DX005 (ip), vehicle: Klucel (hydroxypropylcellulose) (HPC)
[4] = dose: 25.0 mg/kg/injection, schedule: Q01DX009 (ip), vehicle: other
[5] = dose: 50.0 mg/kg/injection, schedule: Q01DX009 (ip), vehicle: other
[6] = dose: 100.0 mg/kg/injection, schedule: Q01DX009 (ip), vehicle: other
[7] = dose: 200.0 mg/kg/injection, schedule: Q01DX009 (ip), vehicle: other
[8] = dose: 25.0 mg/kg/injection, schedule: Q01DX001 (ip), vehicle: Klucel (hydroxypropylcellulose) (HPC)
[9] = dose: 50.0 mg/kg/injection, schedule: Q01DX001 (ip), vehicle: Klucel (hydroxypropylcellulose) (HPC)
[10] = dose: 100.0 mg/kg/injection, schedule: Q01DX001 (ip), vehicle: Klucel (hydroxypropylcellulose) (HPC)
[11] = dose: 200.0 mg/kg/injection, schedule: Q01DX001 (ip), vehicle: Klucel (hydroxypropylcellulose) (HPC)
[12] = dose: 400.0 mg/kg/injection, schedule: Q01DX001 (ip), vehicle: Klucel (hydroxypropylcellulose) (HPC)
[13] = dose: 25.0 mg/kg/injection, schedule: Q01DX009 (ip), vehicle: Klucel (hydroxypropylcellulose) (HPC)
[14] = dose: 30.0 mg/kg/injection, schedule: Q01DX005 (ip), vehicle: saline with Tween-80
[15] = dose: 60.0 mg/kg/injection, schedule: Q01DX005 (ip), vehicle: saline with Tween-80
[16] = dose: 120.0 mg/kg/injection, schedule: Q01DX005 (ip), vehicle: saline with Tween-80
[17] = dose: 240.0 mg/kg/injection, schedule: Q01DX005 (ip), vehicle: saline with Tween-80

Measured: T/C

CC1CC[P+](Cc2ccccc2)(c2ccccc2)CC1 (stereo unspecified)
inactive: dose: 1.56 mg/kg/injection, schedule: Q04DX002 (ip), vehicle: saline 98 % of control | dose: 3.13 mg/kg/injection, schedule: Q04DX002 (ip), vehicle: saline 95 % of control | dose: 6.25 mg/kg/injection, schedule: Q04DX002 (ip), vehicle: saline 90 % of control

COC(=O)/C(C#N)=C/c1ccc(NC(C)=O)cc1
inactive: [1] 93 % of control | [2] 94 % of control | [3] 88 % of control

Cc1nc(O)c([N+](=O)[O-])c(=O)[nH]1
inactive: [4] 99 % of control | [5] 98 % of control | [6] 110 % of control | [7] 102 % of control

CN(C)c1cc(C(=O)O)nc(C(=O)O)c1
inactive: [8] 101 % of control | [9] 107 % of control | [10] 107 % of control and 87 % of control

CCOC(=O)CN=NNc1ccccc1C(=O)CC
inactive: [10] 98 % of control | [11] 100 % of control | [12] 100 % of control

Cc1c2ccccc2c(C)c2c1cc(F)c1ccccc12
inactive: dose: 50.0 mg/kg/injection, schedule: Q04DX003 (ip), vehicle: Klucel (hydroxypropylcellulose) (HPC) 105 % of control | dose: 100.0 mg/kg/injection, schedule: Q04DX003 (ip), vehicle: Klucel (hydroxypropylcellulose) (HPC) 105 % of control | dose: 200.0 mg/kg/injection, schedule: Q04DX003 (ip), vehicle: Klucel (hydroxypropylcellulose) (HPC) 113 % of control | dose: 400.0 mg/kg/injection, schedule: Q04DX003 (ip), vehicle: Klucel (hydroxypropylcellulose) (HPC) 117 % of control

NCC(O)COCc1ccccc1 (stereo unspecified)
inactive: dose: 50.0 mg/kg/injection, schedule: Q04DX002 (ip), vehicle: saline with Tween-80 100 % of control | dose: 100.0 mg/kg/injection, schedule: Q01DX001 (ip), vehicle: saline with Tween-80 90 % of control | dose: 100.0 mg/kg/injection, schedule: Q04DX002 (ip), vehicle: saline with Tween-80 100 % of control

Cc1c(Cl)cccc1NC(=O)Nc1nccs1
inactive: [13] 90 % of control | dose: 50.0 mg/kg/injection, schedule: Q01DX009 (ip), vehicle: Klucel (hydroxypropylcellulose) (HPC) 93 % of control | dose: 100.0 mg/kg/injection, schedule: Q01DX009 (ip), vehicle: Klucel (hydroxypropylcellulose) (HPC) 100 % of control

c1ccc(-c2nsc3ccccc23)cc1
inactive: [1] 99 % of control | [2] 106 % of control | [3] 101 % of control

Cc1cc(C)c(C#N)c(SCC#CCSc2nc(C)cc(C)c2C#N)n1
inactive: dose: 1.5 mg/kg/injection, schedule: Q01DX005 (ip), vehicle: saline with Tween-80 103 % of control | dose: 3.0 mg/kg/injection, schedule: Q01DX005 (ip), vehicle: saline with Tween-80 103 % of control | dose: 6.0 mg/kg/injection, schedule: Q01DX005 (ip), vehicle: saline with Tween-80 94 % of control | dose: 6.25 mg/kg/injection, schedule: Q01DX005 (ip), vehicle: saline with Tween-80 89 % of control | dose: 100.0 mg/kg/injection, schedule: Q01DX005 (ip), vehicle: saline with Tween-80 91 % of control | dose: 200.0 mg/kg/injection, schedule: Q01DX005 (ip), vehicle: saline with Tween-80 91 % of control

COC(=O)c1cc(Cl)ccc1NCC(N)c1ccccc1 (stereo unspecified)
inactive: [14] 99 % of control | [15] 101 % of control and 97 % of control

Cn1c(=O)c2nc(-c3ccccn3)cnc2n(C)c1=O
inactive: [8] 116 % of control | [9] 106 % of control | [10] 100 % of control and 122 % of control and 92 % of control | [11] 95 % of control (2×) and 96 % of control | [12] 94 % of control and 95 % of control

O=C(O)c1cc(Nc2nc(Cl)nc(Cl)n2)ccc1-c1c2ccc(=O)cc-2oc2cc(O)ccc12
inactive: [15] 115 % of control | [16] 119 % of control | [17] 117 % of control

O=[As](O)(O)c1ccc(Nc2nc(Cl)nc(Cl)n2)cc1
inactive: dose: 12.5 mg/kg/injection, schedule: Q01DX009 (ip), vehicle: Klucel (hydroxypropylcellulose) (HPC) 96 % of control | [13] 104 % of control

Brc1cc2c(cc1C=Nc1ccc(OCc3ccccc3)cc1)OCO2
inactive: [4] 98 % of control | [5] 103 % of control | [6] 97 % of control | [7] 95 % of control | dose: 400.0 mg/kg/injection, schedule: Q01DX009 (ip), vehicle: other 86 % of control

CC(=O)NC(CC(C)C(C)=O)C(=O)O (stereo unspecified)
inactive: dose: 50.0 mg/kg/injection, schedule: Q01DX005 (ip), vehicle: saline 92 % of control | dose: 100.0 mg/kg/injection, schedule: Q01DX005 (ip), vehicle: saline 95 % of control | dose: 200.0 mg/kg/injection, schedule: Q01DX005 (ip), vehicle: saline 92 % of control

Oc1c(-c2ccccc2)nc2ccccn12
inactive: dose: 60.0 mg/kg/injection, schedule: Q01DX005 (ip), vehicle: Klucel (hydroxypropylcellulose) (HPC) 94 % of control | dose: 120.0 mg/kg/injection, schedule: Q01DX005 (ip), vehicle: Klucel (hydroxypropylcellulose) (HPC) 96 % of control | dose: 240.0 mg/kg/injection, schedule: Q01DX005 (ip), vehicle: Klucel (hydroxypropylcellulose) (HPC) 107 % of control

CN(C)CCCn1ncc(Sc2cc([N+](=O)[O-])ccc2N)c(Cl)c1=O
inactive: dose: 15.0 mg/kg/injection, schedule: Q01DX005 (ip), vehicle: saline with Tween-80 95 % of control | [14] 94 % of control | [15] 99 % of control and 107 % of control and 94 % of control | [16] 93 % of control | [17] 89 % of control

O=C(/C=C/c1c[nH]c2ccccc12)c1cccc([N+](=O)[O-])c1
inactive: [15] 97 % of control | [16] 94 % of control | [17] 92 % of control
